Tests used:
[1] = system: ducksalad (Heteranthera limosa); assay: Test B flooded paddy test, visual rating 0-100; details: Flood, 250 g ai/ha, applied to paddy water, rated after 13 to 15 days
[2] = system: foxtail, giant (giant foxtail, Setaria faberii); assay: Test A preemergence, visual injury rating 0-100; assay type: in vivo
[3] = system: ryegrass, Italian (Italian ryegrass, Lolium multiflorum); assay: Test A preemergence, visual injury rating 0-100; assay type: in vivo
[4] = system: ragweed (common ragweed, Ambrosia elatior); assay: Test A preemergence, visual injury rating 0-100; assay type: in vivo
kochia (Kochia scoparia) [5] = assay: Test A preemergence, visual injury rating 0-100; assay type: in vivo
[6] = system: pigweed (Amaranthus retroflexus); assay: Test A preemergence, visual injury rating 0-100; assay type: in vivo
[7] = system: barnyardgrass (Echinochloa crus-galli); assay: Test B flooded paddy test, visual rating 0-100; details: Flood, 250 g ai/ha, applied to paddy water, rated after 13 to 15 days
[8] = system: blackgrass (Alopecurus myosuroides); assay: Test A postemergence, visual injury rating 0-100; assay type: in vivo; details: 0 to 100 scale
[9] = system: galium (catchweed bedstraw, Galium aparine); assay: Test A postemergence, visual injury rating 0-100; assay type: in vivo; details: 0 to 100 scale
[10] = system: foxtail, giant (giant foxtail, Setaria faberii); assay: Test A postemergence, visual injury rating 0-100; assay type: in vivo; details: 0 to 100 scale
[11] = system: ryegrass, Italian (Italian ryegrass, Lolium multiflorum); assay: Test A postemergence, visual injury rating 0-100; assay type: in vivo; details: 0 to 100 scale
[12] = system: ragweed (common ragweed, Ambrosia elatior); assay: Test A postemergence, visual injury rating 0-100; assay type: in vivo; details: 0 to 100 scale
kochia (Kochia scoparia) [13] = assay: Test A postemergence, visual injury rating 0-100; assay type: in vivo; details: 0 to 100 scale
[14] = system: wheat (Triticum aestivum); assay: Test A postemergence, visual injury rating 0-100; assay type: in vivo; details: 0 to 100 scale
corn (Zea mays) = assay: Test A postemergence, visual injury rating 0-100; assay type: in vivo; details: 0 to 100 scale
[15] = system: pigweed (Amaranthus retroflexus); assay: Test A postemergence, visual injury rating 0-100; assay type: in vivo; details: 0 to 100 scale
[16] = system: barnyardgrass (Echinochloa crus-galli); assay: Test A postemergence, visual injury rating 0-100; assay type: in vivo; details: 0 to 100 scale
rice (Oryza sativa) = assay: Test B flooded paddy test, visual rating 0-100 (0 no effect, 100 complete control); details: Flood, 250 g ai/ha, applied to paddy water, rated after 13 to 15 days
[17] = system: barnyardgrass (Echinochloa crus-galli); assay: Test A preemergence, visual injury rating 0-100 (0 no effect, 100 complete control); assay type: in vivo

Structure (SMILES)	Ducksalad plant response rating (0 to 100 scale) [1]	Foxtail, Giant plant response rating (0 to 100 scale) ([2]; 125 g ai/ha)	Ryegrass, Italian plant response rating (0 to 100 scale) ([3]; 125 g ai/ha)	Ragweed plant response rating (0 to 100 scale) ([4]; 125 g ai/ha)	Kochia plant response rating (0 to 100 scale) (kochia (Kochia scoparia) [5]; 125 g ai/ha)	Pigweed plant response rating (0 to 100 scale) ([6]; 125 g ai/ha)	Barnyardgrass plant response rating (0 to 100 scale) [7]	Blackgrass plant response rating ([8]; 125 g ai/ha)	Blackgrass plant response rating ([8]; 500 g ai/ha)	Galium plant response rating ([9]; 125 g ai/ha)	Galium plant response rating ([9]; 500 g ai/ha)	Foxtail, Giant plant response rating ([10]; 125 g ai/ha)	Foxtail, Giant plant response rating ([10]; 500 g ai/ha)	Ryegrass, Italian plant response rating ([11]; 125 g ai/ha)	Ryegrass, Italian plant response rating ([11]; 500 g ai/ha)	Ragweed plant response rating ([12]; 125 g ai/ha)	Ragweed plant response rating ([12]; 500 g ai/ha)	Kochia plant response rating (kochia (Kochia scoparia) [13]; 125 g ai/ha)	Kochia plant response rating (kochia (Kochia scoparia) [13]; 500 g ai/ha)	Wheat plant response rating ([14]; 125 g ai/ha)	further results
CC1=[N+]([O-])C(C(=O)Nc2cccc(F)c2F)C(c2ccccc2)C1 (centres unmarked) [Compound 97]	100	90	20	40	50	0	70	30	70	30	50	60	90	0	50	0	20	0	50	10	Foxtail, Giant plant response rating (0 to 100 scale) ([2]; 500 g ai/ha): 90; Ryegrass, Italian plant response rating (0 to 100 scale) ([3]; 500 g ai/ha): 90; Ragweed plant response rating (0 to 100 scale) ([4]; 500 g ai/ha): 90; Kochia plant response rating (0 to 100 scale) (kochia (Kochia scoparia) [5]; 500 g ai/ha): 60; Pigweed plant response rating (0 to 100 scale) ([6]; 500 g ai/ha): 60; Wheat plant response rating ([14]; 500 g ai/ha): 30; Corn plant response rating (corn (Zea mays); 125 g ai/ha): 0; Corn plant response rating (corn (Zea mays); 500 g ai/ha): 0; Pigweed plant response rating ([15]; 125 g ai/ha): 0; Pigweed plant response rating ([15]; 500 g ai/ha): 0; Barnyardgrass plant response rating ([16]; 125 g ai/ha): 70; Barnyardgrass plant response rating ([16]; 500 g ai/ha): 90; Rice plant response rating (0 to 100 scale) (rice (Oryza sativa)): 0; Barnyardgrass plant response rating (0 to 100 scale) ([17]; 125 g ai/ha): 90; Barnyardgrass plant response rating (0 to 100 scale) ([17]; 500 g ai/ha): 100
CC1=[N+]([O-])C(C(=O)Nc2cccc(F)c2F)C(c2ccc(C)c(Cl)c2)C1 (racemic) [Compound 72]	15	90	30	20	20	30	40	60	70	50	50	50	80	30	70	0	50	0	40	30	Foxtail, Giant plant response rating (0 to 100 scale) ([2]; 500 g ai/ha): 90; Ryegrass, Italian plant response rating (0 to 100 scale) ([3]; 500 g ai/ha): 90; Ragweed plant response rating (0 to 100 scale) ([4]; 500 g ai/ha): 90; Kochia plant response rating (0 to 100 scale) (kochia (Kochia scoparia) [5]; 500 g ai/ha): 80; Pigweed plant response rating (0 to 100 scale) ([6]; 500 g ai/ha): 30; Wheat plant response rating ([14]; 500 g ai/ha): 80; Corn plant response rating (corn (Zea mays); 125 g ai/ha): 40; Corn plant response rating (corn (Zea mays); 500 g ai/ha): 70; Pigweed plant response rating ([15]; 125 g ai/ha): 10; Pigweed plant response rating ([15]; 500 g ai/ha): 30; Barnyardgrass plant response rating ([16]; 125 g ai/ha): 90; Barnyardgrass plant response rating ([16]; 500 g ai/ha): 90; Rice plant response rating (0 to 100 scale) (rice (Oryza sativa)): 0; Barnyardgrass plant response rating (0 to 100 scale) ([17]; 125 g ai/ha): 80; Barnyardgrass plant response rating (0 to 100 scale) ([17]; 500 g ai/ha): 90
COc1cc(C)cc(C2CC(C)=[N+]([O-])C2C(=O)Nc2cccc(F)c2F)c1 (centres unmarked) [Compound 91]	55	90	80	20	0	0	65	60	80	0	30	70	90	50	50	0	30	0	30	20	Foxtail, Giant plant response rating (0 to 100 scale) ([2]; 500 g ai/ha): 90; Ryegrass, Italian plant response rating (0 to 100 scale) ([3]; 500 g ai/ha): 90; Ragweed plant response rating (0 to 100 scale) ([4]; 500 g ai/ha): 70; Kochia plant response rating (0 to 100 scale) (kochia (Kochia scoparia) [5]; 500 g ai/ha): 60; Pigweed plant response rating (0 to 100 scale) ([6]; 500 g ai/ha): 60; Wheat plant response rating ([14]; 500 g ai/ha): 50; Corn plant response rating (corn (Zea mays); 125 g ai/ha): 20; Corn plant response rating (corn (Zea mays); 500 g ai/ha): 70; Pigweed plant response rating ([15]; 125 g ai/ha): 0; Pigweed plant response rating ([15]; 500 g ai/ha): 30; Barnyardgrass plant response rating ([16]; 125 g ai/ha): 70; Barnyardgrass plant response rating ([16]; 500 g ai/ha): 90; Rice plant response rating (0 to 100 scale) (rice (Oryza sativa)): 0; Barnyardgrass plant response rating (0 to 100 scale) ([17]; 125 g ai/ha): 90; Barnyardgrass plant response rating (0 to 100 scale) ([17]; 500 g ai/ha): 90
CC1=[N+]([O-])C(C(=O)Nc2cccc(F)c2F)C(c2cccc(C)c2)C1 (racemic) [Compound 15]	95	100	0	0	0	0	85	0	30	0	30	80	90	30	50	0	50	0	30	40	Foxtail, Giant plant response rating ([2]; 500 g ai/ha, 0 to 100 scale): 100; Ryegrass, Italian plant response rating ([3]; 500 g ai/ha, 0 to 100 scale): 50; Ragweed plant response rating ([4]; 500 g ai/ha, 0 to 100 scale): 90; Kochia plant response rating (kochia (Kochia scoparia) [5]; 500 g ai/ha, 0 to 100 scale): 30; Pigweed plant response rating ([6]; 500 g ai/ha, 0 to 100 scale): 0; Wheat plant response rating ([14]; 500 g ai/ha): 50; Corn plant response rating (corn (Zea mays); 125 g ai/ha): 60; Corn plant response rating (corn (Zea mays); 500 g ai/ha): 90; Pigweed plant response rating ([15]; 125 g ai/ha): 0; Pigweed plant response rating ([15]; 500 g ai/ha): 40; Barnyardgrass plant response rating ([16]; 125 g ai/ha): 90; Barnyardgrass plant response rating ([16]; 500 g ai/ha): 90; Rice plant response rating (0 to 100 scale) (rice (Oryza sativa)): 15; Barnyardgrass plant response rating (0 to 100 scale) ([17]; 125 g ai/ha): 100; Barnyardgrass plant response rating ([17]; 500 g ai/ha, 0 to 100 scale): 100

Reference: patent US11498899B2, “Nitrone herbicides” (FMC Corporation, priority 2016, dated 2022)
